Data on 14 molecules can be found in ChEMBL document CHEMBL5308504, “Tm Shift (DSF) assay results for EUbOPEN Chemogenomics Library” (2023).

The target in experiment [1] is T1, Peregrin (Homo sapiens) (UniProt P55201).
T1 sequence (whole entry): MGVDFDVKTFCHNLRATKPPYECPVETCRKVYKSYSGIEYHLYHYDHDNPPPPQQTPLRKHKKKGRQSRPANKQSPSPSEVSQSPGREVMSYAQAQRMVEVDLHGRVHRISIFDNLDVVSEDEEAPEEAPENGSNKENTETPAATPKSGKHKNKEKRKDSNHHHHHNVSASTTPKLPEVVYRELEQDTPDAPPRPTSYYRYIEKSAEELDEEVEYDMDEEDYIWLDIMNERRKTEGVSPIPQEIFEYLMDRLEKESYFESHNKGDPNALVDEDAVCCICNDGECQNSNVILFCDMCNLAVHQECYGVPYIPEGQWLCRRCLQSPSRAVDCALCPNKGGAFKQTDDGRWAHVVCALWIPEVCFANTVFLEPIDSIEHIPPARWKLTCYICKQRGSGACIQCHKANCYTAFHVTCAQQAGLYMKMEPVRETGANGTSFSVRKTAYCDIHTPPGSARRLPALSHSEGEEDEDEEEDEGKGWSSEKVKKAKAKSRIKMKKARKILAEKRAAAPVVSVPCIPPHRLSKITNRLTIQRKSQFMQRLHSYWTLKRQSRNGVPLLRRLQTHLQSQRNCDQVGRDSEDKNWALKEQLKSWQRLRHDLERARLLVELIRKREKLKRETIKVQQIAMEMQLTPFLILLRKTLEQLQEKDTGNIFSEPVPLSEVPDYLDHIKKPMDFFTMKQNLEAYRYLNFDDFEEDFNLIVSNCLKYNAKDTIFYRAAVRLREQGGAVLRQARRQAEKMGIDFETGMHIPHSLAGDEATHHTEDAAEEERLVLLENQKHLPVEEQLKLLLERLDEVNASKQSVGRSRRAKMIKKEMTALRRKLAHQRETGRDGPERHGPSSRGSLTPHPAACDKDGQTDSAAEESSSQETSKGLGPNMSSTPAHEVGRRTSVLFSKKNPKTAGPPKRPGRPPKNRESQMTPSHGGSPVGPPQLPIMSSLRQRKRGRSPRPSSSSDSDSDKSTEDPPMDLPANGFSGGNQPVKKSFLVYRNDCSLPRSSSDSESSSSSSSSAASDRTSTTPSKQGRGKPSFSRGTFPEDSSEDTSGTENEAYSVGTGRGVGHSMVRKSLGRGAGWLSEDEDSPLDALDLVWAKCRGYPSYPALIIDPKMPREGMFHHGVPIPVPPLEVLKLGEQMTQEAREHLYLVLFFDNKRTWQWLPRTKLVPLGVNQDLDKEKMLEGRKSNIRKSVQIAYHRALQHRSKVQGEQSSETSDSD
As to conditions: Compound concentration 20.0 uM, Protein concentration 2.0 uM, Result type QC Liability.

The target of experiment [2] is Fibroblast growth factor receptor 3 (Homo sapiens) (UniProt P22607). As to conditions: Compound concentration 20.0 uM, Protein concentration 2.0 uM, Result type QC Liability.
Description: Thermal Shift Assay. Domain: start/stop: P449-E759

Several values for one entry are separate records, joined by “and”; a condition that tells them apart may be missing. Equal entries are not always repeated.

Chain of Fibroblast growth factor receptor 3 (Homo sapiens) (P22607 23-806 limits assumed): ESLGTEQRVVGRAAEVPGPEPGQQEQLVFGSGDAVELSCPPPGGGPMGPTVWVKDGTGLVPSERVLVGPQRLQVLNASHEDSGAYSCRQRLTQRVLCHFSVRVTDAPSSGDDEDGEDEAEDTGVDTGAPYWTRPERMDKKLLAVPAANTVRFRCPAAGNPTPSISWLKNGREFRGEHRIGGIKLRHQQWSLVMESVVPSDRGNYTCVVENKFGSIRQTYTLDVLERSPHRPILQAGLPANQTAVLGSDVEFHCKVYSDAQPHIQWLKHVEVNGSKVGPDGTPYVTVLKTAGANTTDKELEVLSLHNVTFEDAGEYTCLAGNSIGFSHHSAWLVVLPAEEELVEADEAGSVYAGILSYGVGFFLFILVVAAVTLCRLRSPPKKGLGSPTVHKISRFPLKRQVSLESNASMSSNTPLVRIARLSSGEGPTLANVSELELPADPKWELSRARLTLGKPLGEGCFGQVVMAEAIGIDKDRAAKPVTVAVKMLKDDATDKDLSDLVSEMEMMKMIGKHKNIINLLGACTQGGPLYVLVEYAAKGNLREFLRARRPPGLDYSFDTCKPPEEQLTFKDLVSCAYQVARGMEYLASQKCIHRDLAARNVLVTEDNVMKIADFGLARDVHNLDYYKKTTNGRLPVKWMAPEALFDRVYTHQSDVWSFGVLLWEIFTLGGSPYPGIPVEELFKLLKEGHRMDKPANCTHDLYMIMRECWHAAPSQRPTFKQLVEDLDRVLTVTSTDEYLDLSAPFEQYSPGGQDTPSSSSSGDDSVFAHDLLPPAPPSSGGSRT

Broadly, the ΔTm is the change in melting temperature against a reference sample. For `COc1cc(C(N)=O)nc(-c2cccc(C#C[C@]3(O)CCN(C)C3=O)c2)c1`, the ΔTm in experiment [1] is -1.73 °C; in experiment [2], 0.48 °C.

For `CN(C)C(=O)c1sc2nc(N3CCC(S(C)(=O)=O)CC3)cc(C(F)(F)F)c2c1N`, the ΔTm is -2.57 °C and -1.49 °C in experiment [1]; 0.65 °C and 1.05 °C in experiment [2].

Consider `COc1ccc(S(=O)(=O)N2CCOCC2)cc1Nc1ccc2c(n1)N(C1CCOCC1)[C@H](C)C(=O)N2C`, for which the ΔTm is 0.21 °C in experiment [1] and 0.08 °C in experiment [2].

Take `COc1cc(C(=O)NC2CCN(C)CC2)ccc1Nc1ncc(C(F)(F)F)c(NCc2ccc(C)cc2N(C)S(C)(=O)=O)n1`: the ΔTm in experiment [1] is -1.4 °C; in experiment [2] it was 2.55 °C.

For the molecule `Cn1cc(NC(=O)c2ccc3nc4n(c3c2)CCCNC4=O)nc1C(=O)NC1CCCC1`, the thermal shift (ΔTm) in experiment [1] is -0.88 °C; in experiment [2], 1.76 °C.

`CCOC(=O)c1cc2cc(-c3cc(C(=O)NCc4ccc(C(=O)O)cc4)nn3C)ccc2[nH]1`: the ΔTm in experiment [1] is -3.42 °C; in experiment [2], 0.83 °C.

As for `CS(=O)(=O)NCC[C@H](NC(=O)c1cncc2c1cnn2-c1ccc(F)cc1)c1ccnc(S(C)(=O)=O)c1`, the ΔTm in experiment [1] is -1.91 °C; in experiment [2], 0.62 °C.

With `O=C(Nc1cc2cc[nH]c(=O)c2cc1Cl)[C@H]1CNC[C@@H]1c1cccnc1`, the shift in melting temperature (ΔTm) in experiment [1] is -0.61 °C; in experiment [2], 0.4 °C.

As to `O=C(O)c1cc(-c2ccccc2)ccc1O`, the thermal shift (ΔTm) was -0.36 °C in experiment [1] and 0.62 °C in experiment [2].

Turning to `Cn1cc(C(=O)O)c2ccc(N3CCC(OCc4c(-c5c(Cl)cccc5Cl)noc4C4CC4)CC3)cc21`, the ΔTm in experiment [1] is -1.9 °C; in experiment [2], 0.91 °C.

For `CN1CCN(c2ccc(Nc3ncc4cc5n(c4n3)C3(CCCCC3)CNC5=O)nc2)CC1`, the thermal shift (ΔTm) in experiment [1] is -1.56 °C; in experiment [2], 0.83 °C.

For `N#Cc1ccc(C#CC[C@@H](C#N)NC(=O)[C@@H]2CCCCN2)cc1F`, the thermal shift (ΔTm) is -2.06 °C in experiment [1] and 0.43 °C in experiment [2].

For `CCOc1cc(CC(=O)N[C@@H](CC(C)C)c2ccccc2N2CCCCC2)ccc1C(=O)O`, the ΔTm in experiment [1] was -3.67 °C; in experiment [2], 0.18 °C.

On to `CCn1c(-c2nonc2N)nc2cncc(C(=O)N3CC[C@H](N)C3)c21`, for which the shift in melting temperature (ΔTm) was -1.78 °C in experiment [1] and 0.35 °C in experiment [2].
